Data on one compound can be found in patent publication US20170105910A1, “UV FILTER CAPSULE” (BASF SE, priority 2007, published 2017).

Molecules are shown by their SMILES.

The data set in a line: Solubility of Ethylhexyl Triazone in solvents (visual assessment). Type of data set: physicochemical. The method, then: The solubility of Ethylhexyl Triazone in the systems indicated can be determined as follows:
The test substance is initially incorporated into the solvent (for example cosmetic emollient, as indicated in the table) at room temperature (about 20° C.-25° C.) with stirring in small beakers on a heatable magnetic stirrer (the stirring time here should not exceed about 30 min.). The assessment is carried out visually, i.e. it is checked whether a completely clear solution and without evident particles is present. The amounts, conditions and stirring times employed should be noted. If the substance is readily soluble, the concentration is increased by subsequent incorporation of further substance, for example by addition in 0.1 g steps with stirring. […] The assessment is carried out visually, if necessary with the aid of a microscope with lambda plate.

Consider `CCCCC(CC)COC(=O)c1ccc(Nc2nc(Nc3ccc(C(=O)OCC(CC)CCCC)cc3)nc(Nc3ccc(C(=O)OCC(CC)CCCC)cc3)n2)cc1` (centres unmarked) [Ethylhexyl Triazone, 2,4,6-tris[anilino(p-carbo-2′-ethyl-1′-hexyloxy)]-1,3,5-triazine], for which the “solubility at room temperature” value (in Spectrasolv DMDA, room temperature (20° C. to 25° C.)) is “about 55 % by weight”. Also, the “Ethylhexyl Triazone solubility at 25° C.” value by setting is: (solvent C12-13 Alkyl Lactate) 22%; (solvent Di-C12-13 Alkyl Tartrate) 35%; (solvent Dioctyl Malate) 13%; (solvent Spectrasolv DMDA) “about 55%”.
